Measurements published in patent publication US20260242352A1, “INHIBITION OF SHIP1 AS A THERAPEUTIC STRATEGY FOR THE TREATMENT OF ALZHEIMER'S DISEASE” (The Trustees of Indiana University, priority 2022, published 2026).
Structures can show the parent of a compound that is named as a salt.

target: T1, SHIP1 (Homo sapiens, UniProt Q92835); test: Malachite green enzyme assay; type: biochemical; conditions: Table 1; PI(3,4,5)P3-diC8 52 μM, enzyme 10 nM, SHIP1 Ptase-C2, 25° C., pH7.4; geometric mean; read-out: SHIP1 IC50 μM (n)
T1 sequence (Q92835 396-858): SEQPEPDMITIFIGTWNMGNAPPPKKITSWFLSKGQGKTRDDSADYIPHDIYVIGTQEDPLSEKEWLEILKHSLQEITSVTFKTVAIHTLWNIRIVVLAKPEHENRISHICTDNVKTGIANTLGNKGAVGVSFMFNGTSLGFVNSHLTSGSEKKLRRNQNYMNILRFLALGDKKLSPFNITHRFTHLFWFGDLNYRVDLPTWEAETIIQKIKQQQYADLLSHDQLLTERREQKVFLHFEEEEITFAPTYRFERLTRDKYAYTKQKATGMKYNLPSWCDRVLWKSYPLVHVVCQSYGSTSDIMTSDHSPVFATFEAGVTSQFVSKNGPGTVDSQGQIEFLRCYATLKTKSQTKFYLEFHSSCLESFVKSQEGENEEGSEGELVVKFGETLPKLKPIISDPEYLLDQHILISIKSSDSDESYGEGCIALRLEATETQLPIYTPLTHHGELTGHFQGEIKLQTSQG
Text: The inventors have performed a screen of 50K compounds at the SHIP1 phosphatase, analyzed a publicly available fragment-based screen, and evaluated inhibitors reported in the literature. They utilized the malachite green assay with PtdIns(3,4,5)P3-diC8 and SHIP1 Ptase-C2 to measure inhibitory potency. A Cellular Thermal Shift Assay was used to confirm target engagement in cells. A phosphoAKT assay was used to provide additional evidence of on-target activity. A high-content imaging assay measuring phagocytosis, cell number, and nuclear intensity was implemented using the BV2 and HMC3 cell lines to characterize cellular pharmacology and cytotoxicity. […] Inhibitors predicted to have drug-like properties were subjected to assays measuring solubility, cellular permeability, and mouse microsomal stability. A physiological based pharmacokinetic model was compared to measured exposure in vivo for select compounds upon oral administration in mice.
Malachite Green Enzyme Assay. […] Compounds diluted in DMSO were added to 384-well plates. Enzyme solution was added. After a 20 min incubation period, the reaction was initiated by addition of PI(3,4,5)P3-diC8. Final compound concentrations ranged from 50 nM to 950 μM. Final reaction concentrations for the PI(3,4,5)P3-diC8 substrate and the enzyme were 52 μM and 10 nM respectively. The reaction was quenched after 10 min by adding Malachite BioMol Green (Enzo Lifesciences, PA, USA). Plates were then incubated for 30 min at room temperature. Absorbance (620 nm) was measured using a SpectraMax Me5 Microplate Reader (Molecular Devices, LLC, USA). IC50 values were calculated by fitting absorbance versus inhibitor concentration.
Compounds diluted in DMSO were added to 384-well plates. Enzyme solution was added. After a 20 min incubation period, the reaction was initiated by addition of PI(3,4,5)P3-diC8. Final compound concentrations ranged from 50 nM to 950 μM. Final reaction concentrations for the PI(3,4,5)P3-diC8 substrate and the enzyme were 52 μM and 10 nM respectively. The reaction was quenched after 10 min by adding Malachite BioMol Green (Enzo Lifesciences, PA, USA). Plates were then incubated for 30 min at room temperature. Absorbance (620 nm) was measured using a SpectraMax Me5 Microplate Reader (Molecular Devices, LLC, USA). IC50 values were calculated by fitting absorbance versus inhibitor concentration and are reported as the geometric mean and standard error of mean with the number of repeats (n) indicated. Compounds and activities are as depicted in tables 1 and 2 above.

Row | IC50 [µM] | SMILES
1 | 137 | CC(C)(C)OC(=O)N1CCC(n2cc(-c3cncc(OCc4ccc(Cl)cc4)c3)cn2)CC1 [Compound 6, tert-butyl 4-(4-(5-((4-chlorobenzyl)oxy)pyridin-3-yl)-1H-pyrazol-1-yl)piperidine-1-carboxylate]
2 | 18.1 | CC(C)(C)OC(=O)N1CCC(n2cc(-c3cncc(OCc4ccc(Cl)cc4Cl)c3)cn2)CC1 [Compound 8, tert-butyl 4-(4-(5-((2,4-dichlorobenzyl)oxy)pyridin-3-yl)-1H-pyrazol-1-yl)piperidine-1-carboxylate]
3 | 109 | Clc1ccc(COc2cncc(-c3cnn(C4CCNCC4)c3)c2)cc1 [Compound 11, 3-((4-chlorobenzyl)oxy)-5-(1-(piperidin-4-yl)-1H-pyrazol-4-yl)pyridine hydrochloride]
4 | 29.7 | Brc1ccc(COc2cncc(-c3cnn(C4CCNCC4)c3)c2)cc1 [Compound 12, 3-((4-bromobenzyl)oxy)-5-(1-(piperidin-4-yl)-1H-pyrazol-4-yl)pyridine hydrochloride]
5 | 208 | c1ccc(COc2cncc(-c3cnn(C4CCNCC4)c3)c2)cc1 [Compound 14, 3-(benzyloxy)-5-(1-(piperidin-4-yl)-1H-pyrazol-4-yl)pyridine trifluoroacetate]
6 | 133 | COC(=O)N1CCC(n2cc(-c3cncc(OCc4ccccc4Cl)c3)cn2)CC1 [Compound 17, Methyl 4-(4-(5-((2-chlorobenzyl)oxy)pyridin-3-yl)-1H-pyrazol-1-yl)piperidine-1-carboxylate]
7 | 99.2 | O=C(c1ccccc1)N1CCC(n2cc(-c3cncc(OCc4ccccc4Cl)c3)cn2)CC1 [Compound 18, (4-(4-(5-((2-chlorobenzyl)oxy)pyridin-3-yl)-1H-pyrazol-1-yl)piperidin-1-yl)(phenyl)methanone]

target: T2, HiBit-labeled full length SHIP1 protein (Homo sapiens, UniProt Q92835); test: Cellular thermal shift assay (SplitLuc CETSA), compound dose response; type: cell-based; conditions: HMC3/HiBit-INPP5D cells, 60 min, heated at 44.2° C.
T2 construct: thermal stability of a HiBit-labeled full length SHIP1 protein in intact cells; expressed in transfected cells; host or cells: HMC3 (stably transfected)
T2 sequence (Q92835 1-1189): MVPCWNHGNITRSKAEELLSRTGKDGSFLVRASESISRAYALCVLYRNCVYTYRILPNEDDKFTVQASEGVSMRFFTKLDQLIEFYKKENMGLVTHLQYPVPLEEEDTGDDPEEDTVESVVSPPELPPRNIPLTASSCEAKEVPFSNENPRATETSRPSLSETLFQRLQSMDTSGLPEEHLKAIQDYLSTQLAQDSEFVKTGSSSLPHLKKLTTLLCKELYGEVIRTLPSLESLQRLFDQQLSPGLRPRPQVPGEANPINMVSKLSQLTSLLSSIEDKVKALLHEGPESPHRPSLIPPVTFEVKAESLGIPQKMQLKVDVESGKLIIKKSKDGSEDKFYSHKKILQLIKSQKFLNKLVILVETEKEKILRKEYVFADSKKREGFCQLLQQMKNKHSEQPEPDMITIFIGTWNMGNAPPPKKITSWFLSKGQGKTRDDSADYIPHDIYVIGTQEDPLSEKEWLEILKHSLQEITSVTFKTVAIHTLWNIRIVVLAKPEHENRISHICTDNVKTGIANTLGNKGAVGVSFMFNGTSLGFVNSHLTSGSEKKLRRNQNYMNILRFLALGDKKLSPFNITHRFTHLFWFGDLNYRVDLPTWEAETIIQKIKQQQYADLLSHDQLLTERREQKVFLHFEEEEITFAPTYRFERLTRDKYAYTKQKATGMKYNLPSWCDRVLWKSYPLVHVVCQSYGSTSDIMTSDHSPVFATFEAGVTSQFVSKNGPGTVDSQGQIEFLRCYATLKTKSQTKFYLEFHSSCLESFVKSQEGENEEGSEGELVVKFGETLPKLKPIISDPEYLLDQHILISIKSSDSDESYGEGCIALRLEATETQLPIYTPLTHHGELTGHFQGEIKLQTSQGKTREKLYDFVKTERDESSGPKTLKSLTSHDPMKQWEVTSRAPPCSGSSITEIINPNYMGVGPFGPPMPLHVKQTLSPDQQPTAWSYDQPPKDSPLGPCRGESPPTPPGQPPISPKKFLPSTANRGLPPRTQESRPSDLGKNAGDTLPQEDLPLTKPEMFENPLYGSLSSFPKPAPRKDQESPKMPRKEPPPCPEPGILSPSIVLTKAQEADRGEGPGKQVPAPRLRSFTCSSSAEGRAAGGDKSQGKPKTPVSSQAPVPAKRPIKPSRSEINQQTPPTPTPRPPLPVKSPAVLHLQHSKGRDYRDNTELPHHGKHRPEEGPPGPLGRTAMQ
Protocol: Cellular thermal shift assay (CETSA). […] This assay was run in the following two formats with HMC3/HiBit-INPP5D stably transfected cells.
2. Compound dose response: run at target Tm (44.2° C. for SHIP1) with compound dosing from 80 uM or 100 uM with 1:3 serial dilutions to generate an 8 point curve. Cells were treated for 60 min before being heated at target Tm for 3 min before luminescence detection. An AC50 was calculated using a four-parameter logistic curve regression model with change at highest concentration noted when difference from control >3SD, otherwise AC50 marked as “nc” for not calculated.
See Martinez et al. (2018) Sci Rep 8: p. 9472; Oh-Hashi et al. (2017) Biochem Biophys Rep 12: pp. 40-45. This assay was run in the following two formats with HMC3/HiBit-INPP5D stably transfected cells.
Compound dose response: run at target Tm (44.2° C. for SHIP1) with compound dosing from 80 uM or 100 uM with 1:3 serial dilutions to generate an 8-point curve. Cells were treated for 60 min before being heated at target Tm for 3 min before luminescence detection. The concentration that induced a half-maximum response (AC50) was calculated using a four-parameter logistic curve regression model with change at highest concentration noted when difference from control >3SD.

Row | CETSA Min Inhibition (%) | SMILES
8 | 72.1 | O=C(OCc1ccccc1)N1CCC(n2cc(-c3cncc(OCc4ccccc4Cl)c3)cn2)CC1 [Compound 19, Benzyl 4-(4-(5-((2-chlorobenzyl)oxy)pyridin-3-yl)-1H-pyrazol-1-yl)piperidine-1-carboxylate]

test system: BV2 cells; test: pHrodo-myelin phagocytosis/cell health assay, BV2 cells; type: cell-based; conditions: Mus musculus, BV-2, compound 48 hrs, 60 μM to 3 nM, (n) in cell
Protocol: pHrodo-myelin phagocytosis/cell health assay with microglial cells. This 384-well plate high content imaging assay was developed to quantify phagocytosis and cell health simultaneously using either BV2 or HMC3 immortalized microglial cell lines or primary microglia isolated from mouse brain. Cells were cultured in DMEM GlutaMax media (ThermoFisher) containing 10% FBS and Pen-Strep in 37° C. 5% CO2 incubator.
Day 1: Cells were plated (Corning Falcon 384 well Optilux Black and clear bottom plates for imaging) with BV2 at 400 cells/45 μl/well, HMC3 at 600 cells/45 μl/well, or primary at 2000 cell/45 μl/well.
Day 2: Cells were treated with 10× serially diluted compounds in a dose range of 60 μM to 3 nM for 48 hrs at 37° C.
Day 3: Cells were seeded with pHrodo-myelin (for total 20 hrs) 24 hrs after starting compound treatment. The pHrodo-myelin stocks were at 1 mg/ml (protein equivalent) stored in −20° C. or −80° C. freezer. Stocks were thawed and diluted with culture media into 10× seeding solution (50 μg/ml) and added 5 μl/well to 384 well cell plate.
Day 4: Cell staining and imaging. Nuclear staining solution was prepared by adding 1 μl of 10 mg/mL Hoechst-33342 to every 1 ml culture media that will be added to cell plate at 20 μl/well. The final concentration of Hoechst-33342 to cells was about 2.5 μg/ml. Cell plates were incubated for >30 min at 37° C. before imaging. Cell plates were scanned with an ArrayScan automatic high content imaging system using a 10× objective lens, 4 fields/well collected. Three measurements were obtained 1) mean total phagocytosis spot intensity per cell, 2) total cell counts per well, and 3) mean average nuclear intensity per cell for cell health.
This 384-well plate high content imaging assay was developed to quantify phagocytosis and cell health simultaneously using either BV2 or HMC3 immortalized microglial cell lines or primary microglia isolated from mouse brain. Cells were cultured in DMEM GlutaMax media (ThermoFisher) containing 10% FBS and Pen-Strep in 37° C. 5% CO2 incubator. Day 1: Cells were plated (Corning Falcon 384 well Optilux Black and clear bottom plates for imaging) with BV2 at 400 cells/45 μl/well, HMC3 at 600 cells/45 μl/well, or primary at 2000 cell/45 μl/well. Day 2: Cells were treated with 10× serially diluted compounds in a dose range of 60 μM to 3 nM for 48 hrs at 37° C. Day 3: Cells were seeded with pHrodo-myelin (for total 20 hrs) 24 hrs after starting compound treatment. The pHrodo-myelin stocks were at 1 mg/ml (protein equivalent) stored in −20° C. or −80° C. freezer. Stocks were thawed and diluted with culture media into 10× seeding solution (50 μg/ml) and added 5 μl/well to 384 well cell plate. Day 4: Cell staining and imaging. Nuclear staining solution was prepared by adding 1 μl of 10 mg/mL Hoechst-33342 to every 1 ml culture media that will be added to cell plate at 20 μl/well. The final concentration of Hoechst-33342 to cells was about 2.5 μg/ml. Cell plates were incubated for >30 min at 37° C. before imaging. Cell plates were scanned with an ArrayScan automatic high content imaging system using a 10× objective lens, 4 fields/well collected. Three measurements were obtained 1) mean total phagocytosis spot intensity per cell, 2) total cell counts per well, and 3) mean average nuclear intensity per cell for cell health.

Row | EC50 [µM] | SMILES
9 | 0.958 | O=C(OCc1ccccc1)N1CCC(n2cc(-c3cncc(OCc4ccccc4Cl)c3)cn2)CC1 [Compound 19, Benzyl 4-(4-(5-((2-chlorobenzyl)oxy)pyridin-3-yl)-1H-pyrazol-1-yl)piperidine-1-carboxylate]
